Reference: patent US12617767B2, “Crystalline forms of somatostatin modulators” (Crinetics Pharmaceuticals, Inc., priority 2019, dated 2026)
In brackets after ≈: the same amount, converted by molar mass. Read-outs that look alike come from different tables or passages of the source.

Assays:
Format in all cases: physicochemical
[1] = Slurries of amorphous material (dissolution at room temperature); details: room temperature (20-23° C.)
Experimental: About 22 mg of amorphous material was dispensed into vials and 0.5 mL (ca. 23 volumes) of the chosen solvent was added, and the mixture was stirred at room temperature (20-23° C.). A solution was formed in water and water saturated MeOAc. Additional solid was added to these solutions, but when a solution remained after roughly doubling the original solid quantity (ca. 90 mg/mL), further addition was ceased. All the other samples remained as slurries. After slurrying for 4 hours, an aliquot was taken for XRPD analysis of the slurry solids from all the samples except the water and water saturated MeOAc samples as they remained solutions. The mixtures continued to stir at room temperature overnight then the remaining slurry solids were collected (total slurry time of about 24 hours).

[2] = Humidity stress tests (XRPD, HPLC purity); details: 40° C./75% RH/7 days
Experimental: Pattern A was heated to 277° C., monitored by DSC. […] This material was exposed to ˜90% RH at room temperature and slurried in ACN and after 4 hours the Patterns B and I were recovered, respectively.
About 15 mg of Compound A⋅2MSA (Pattern A) was loaded into a 4 mL vial and the opening was covered with a Kimwipe. This was placed in a 20 mL vial with saturated aqueous K2SO4 and sealed to provide an environment of 94-96% Relative Humidity (RH) at room temperature (RT).
About 10 mg of Compound A⋅2MSA Pattern A and Pattern B were loaded into separate 4 mL vials. These were placed in 20 mL vials with saturated aqueous NaCl and sealed to provide an environment of 75% RH at 40° C. […] The same 1 week study was done with Pattern C (+I) and Pattern I, both remained stable by XRPD.

[3] = Karl-Fischer titration for water determination
Experimental: Karl-Fischer titration for water determination was done using a Mettler Toledo C20S Coulometric KF Titrator equipped with a current generator cell with a diaphragm, and a doubleplatinum-pin electrode. Aquastar™ CombiCoulomat fritless reagent was used in both the anode and cathode compartments. Samples of approximately 0.03-0.10 g were dissolved in the anode compartment and titrated until the solution potential dropped below 100 mV. Hydranal 1 wt. % water standard is used for validation prior to sample analysis.

[4] = Equilibrium solubility in simulated fluids and water at 37° C.; details: for solubility at 24 h: above calibration range
Experimental: The solubility Compound A⋅2MSA, Patterns A, B and I, was measured in water, fasted state simulated gastric fluid (FaSSGF) and fasted state simulated intestinal fluid (FaSSIF) at 37° C. by slurrying in the respective media for 24 hours. 1.5 mL of the fluid was stirred at 37° C. About 5 mg of the specified solid was added to FaSSIF and a thin slurry was immediately formed. As a test, approximately 80 and 60 mg of Pattern A was added to 1.5 mL of water and FaSSGF, respectively without formation of a slurry. Therefore, about 10 mg of the desired Pattern was added to water and FaSSGF solutions. The samples were allowed to stir at 37° C. for 24 hrs. The stir bars were removed from the FaSSIF vials and the solids allowed to settle for 0.5 hours at 37° C. The supernatant/solutions were syringe filtered and recovered for analysis by HPLC as well as for pH measurement.

[5] = Stability of XRPD pattern on drying; details: solids from short term slurries; vacuum oven at 50° C., minimum of 4 hours; dimesylate
Experimental: Short term slurries were carried out at two temperatures in 14 solvents. About 25 mg solid was added to a 2 mL vial followed by 0.70 mL of solvent. If all solids dissolved, more solid was added until a slurry was formed within reason. Slurries were stirred at constant temperature for four days (ambient temperature, 21-23° C.; or high temperature, 50° C.). After stirring for four days, solids were allowed to settle and were then recovered for XRPD analysis. XRPD analysis was performed on the wet cake, and if a new pattern was observed, the sample was dried in a vacuum oven at 50° C. for a minimum of 4 hours, then the dried sample was analyzed by XRPD.
Stability on Drying: A sample of Pattern B was prepared on an XRPD sample holder and analysed by XRPD to create a baseline. The disk was then left in a vacuum oven at 50° C. under static vacuum for 3 days. On the third day, the sample was removed from the oven and the “dry” pattern was recorded immediately.
(§1) Compound A⋅2MSA (Pattern A) was slurried in EtOH overnight at room temperature (ca. 16 hours). […] The bulk was dried in a vacuum oven at 50° C. under dynamic vacuum for 4.5 hours. The dried solids were removed from the oven and a “dry” XRPD analysis was collected.

[6] = Storage at ambient conditions (XRPD); details: bulk, 6 days at ambient conditions; dimesylate
Experimental: Characterization after storage under ambient conditions: Pattern B was left at ambient conditions (21-22° C., 10-40% RH) for a week then characterized by)(RFD, TGA/DSC, and water content measured by Karl-Fischer titration. […] The water content was confirmed by KF titration which yielded a value of 4.20 wt. %.
Compound A⋅2MSA (Pattern A, 0.2622 g) was added to a 20 mL vial with a stir bar. Fifteen volumes (3.93 mL) of EtOH was added and the slurry was stirred overnight (˜20 hours). The slurry was sampled to confirm the correct pattern was generated, then the solids were collected by filtration. The resultant yellow solid was dried in a vacuum oven at 50° C. under dynamic vacuum for 2 hours, then under static vacuum overnight (˜16 hours) to yield 0.2015 g (77% yield). The in-situ sample drawn was dried for 3 hours then the solid was used for characterization by solution ^1H-NMR spectroscopy and simultaneous TGA/DSC. The bulk was dried overnight and used for stand-alone DSC, and thermal treatment.
as §1
Compound A⋅2MSA (Pattern A, 0.2659 g) was added to a 20 mL vial with a stir bar. Twenty-five volumes (6.65 mL) of ACN was added and the slurry was stirred overnight (˜20 hours). The slurry was sampled to confirm the correct pattern was generated, then the solids were collected by filtration. The resultant yellow solid was dried in a vacuum oven at 50° C. under dynamic vacuum for 2 hours, then under static vacuum overnight (˜16 hours) to yield 0.2255 g (85% yield). The sample drawn was dried for 3 hours then the solid was used for characterization by solution ^1H-NMR spectroscopy and simultaneous TGA/DSC. The bulk was dried overnight and used for stand-alone DSC.

[7] = Dynamic Vapor Sorption (DVS)
Experimental: Dynamic Vapor Sorption (DVS) was done using a DVS Intrinsic 1. The sample is loaded into a sample pan and suspended from a microbalance. A typical sample mass for DVS measurement is 25 mg. Nitrogen gas bubbled through distilled water provides the desired relative humidity.
A typical measurement comprises the steps: • 1—Equilibrate at 50% RH • 2-50% to 2%. (50%, 40%, 30%, 20%, 10% and 2%) • a. Hold minimum of 5 mins and maximum of 240 minutes at each humidity. The pass criteria is less than 0.002% change • 3-2% to 95% (2%, 10%, 20%, 30%, 40%, 50%, 60%, 70%, 80%, 90%, 95%) • a. Hold minimum of 5 mins and maximum of 240 minutes at each humidity. The pass criteria is less than 0.002% change • 4-95% to 2% (95%, 80%, 70%, 60%, 50%, 40%, 30%, 20%, 10%, 2%) • a. Hold minimum of 5 mins and maximum of 240 minutes at each humidity. The pass criteria is less than 0.002% change • 5-2% to 50% (2%, 10%, 20%, 30%, 40%, 50%) • a. Hold minimum of 5 mins and maximum of 240 minutes at each humidity. The pass criteria is less than 0.002% change Dynamic Vapor Sorption Isotherm Plots of Solid Forms of Compound A⋅2MSA

## CS(=O)(=O)O.CS(=O)(=O)O.N#Cc1cccc(-c2ccc3ncc(-c4cc(F)cc(F)c4)c(N4CCC(N)CC4)c3c2)c1O [Amorphous Compound A⋅2MSA, 3-(4-(4-aminopiperidin-1-yl)-3-(3,5-difluorophenyl)quinolin-6-yl)-2-hydroxybenzonitrile dimesylate]
[1]; water saturated MeOAc
  concentration at which a solution remained: > 90000 µg/mL
[1]; water
  concentration at which a solution remained: > 90000 µg/mL

## CS(=O)(=O)O.CS(=O)(=O)O.N#Cc1cccc(-c2ccc3ncc(-c4cc(F)cc(F)c4)c(N4CCC(N)CC4)c3c2)c1O [C + I, 3-(4-(4-aminopiperidin-1-yl)-3-(3,5-difluorophenyl)quinolin-6-yl)-2-hydroxybenzonitrile dimesylate]
[2]
  Output XRPD: C + I

## N#Cc1cccc(-c2ccc3ncc(-c4cc(F)cc(F)c4)c(N4CCC(N)CC4)c3c2)c1O [Compound A, 3-(4-(4-aminopiperidin-1-yl)-3-(3,5-difluorophenyl)quinolin-6-yl)-2-hydroxybenzonitrile]
[3]
  Water Content: 1.5% w/w
[4]; FaSSGF (pH 1.70)
  pH (24 hr): 1.82
[4]; FaSSGF (pH 1.70), 24 hrs
  comments: dissolved
[4]; FaSSGF, 37 °C, pH 1.7, fassgf or other biorelevant, thermodynamic from solid, FaSSGF (pH 1.70), 24 hrs, mg of Compound A (free base), read-out: Concentration
  solubility at 24 h: > 10300 µg/mL
[4]; FaSSIF (pH 6.48)
  pH (24 hr): 6.11
[4]; FaSSIF (pH 6.48), 24 hrs
  comments: disproportionated
[4]; FaSSIF, 37 °C, pH 6.48, fassif, thermodynamic from solid, FaSSIF (pH 6.48), 24 hrs, mg of Compound A (free base), read-out: Concentration
  solubility thermodynamic at 24 h: 9 µg/mL (≈ 0.0197 mM)
[4]; water
  pH (24 hr): 2.71
[4]; water, 37 °C, water, thermodynamic from solid, water, 24 hrs, mg of Compound A (free base), read-out: Concentration
  solubility at 24 h: > 9770 µg/mL
[4]; water, 24 hrs
  comments: dissolved

## CS(=O)(=O)O.CS(=O)(=O)O.N#Cc1cccc(-c2ccc3ncc(-c4cc(F)cc(F)c4)c(N4CCC(N)CC4)c3c2)c1O [Pattern I, 3-(4-(4-aminopiperidin-1-yl)-3-(3,5-difluorophenyl)quinolin-6-yl)-2-hydroxybenzonitrile dimesylate]
[5]
  XRPD pattern upon drying: stable upon drying
[6]
  XRPD pattern after storage at ambient conditions: a pattern with additional peaks
[3]; dimesylate
  Water Content: 0.29% w/w
[7]; 2-95% RH, dimesylate
  XRPD form after the DVS experiment: converted to Pattern B
[7]; between 2% and 95% Relative Humidity (RH), dimesylate
  reversible water uptake (DVS): 9.1 % w/w
[7]; between 15 and 75% RH
  water uptake (DVS): 2.5 % w/w
[7]; over the 2-95% RH range
  total mass difference on the desorption segment (DVS): 4.6%
  total mass difference on the sorption segment (DVS): 9.1%
[7]; range of 15-75% RH
  mass change (DVS): 2.5 wt. %
